≈ marks a conversion by molar mass, not a printed value. Like-named read-outs stand apart in the source and are kept apart here.
Experiment: Solubility of the drugs in aqueous media
Format: physicochemical

For `CCc1cc(Oc2cccc(N(Cc3cccc(OC(F)(F)C(F)F)c3)C[C@@H](O)C(F)(F)F)c2)ccc1Cl` [Drug 1, (2R)-3-[[3-(4-chloro-3-ethylphenoxy)phenyl][[3-(1,1,2,2-tetrafluoroethoxy)phenyl]methyl]amino]-1,1,1-trifluoro-2-propanol], the solubility (phosphate buffered saline, aqueous buffer, PBS, pH 6.5, read-out: solubility in phosphate buffered saline at pH 6.5 (PBS)) was less than 0.1 µg/mL.

Compound `CC[C@@H]1C[C@H](N(Cc2cc(C(F)(F)F)cc(C(F)(F)F)c2)C(C)=O)c2cc(C(F)(F)F)ccc2N1C(=O)OC(C)C` [Drug 2, [2R,4S]4-[acetyl-(3,5-bis-trifluoromethyl-benzyl)-amino]-2-ethyl-6-trifluoromethyl-3,4-dihydro-2H-quinoline-1-carboxylic acid isopropyl ester] has a solubility (model fasted duodenal (MFD) solution, fassgf or other biorelevant, MFD solution, read-out: solubility in model fasted duodenal (MFD) solution) of roughly 11 µg/mL (≈ 18.4 µM).

For `CCOC(=O)N1c2ccc(C(F)(F)F)cc2[C@@H](N(Cc2cc(C(F)(F)F)cc(C(F)(F)F)c2)C(=O)OC)C[C@H]1CC` [Drug 3, [2R,4S]4-[(3,5-bis-trifluoromethyl-benzyl)-methoxycarbonyl-amino]-2-ethyl-6-trifluoromethyl-3,4-dihydro-2H-quinoline-1-carboxylic acid ethyl ester, reference compound], the solubility (water, read-out: solubility in water) was less than 0.1 µg/mL.

Source: patent publication US8703204B2, “Nanoparticles comprising a cholesteryl ester transfer protein inhibitor and anon-ionizable polymer” (Bend Research, Inc., priority 2007, dated 2014)
